According to patent USRE39591E1, “6-O-substituted ketolides having antibacterial activity” (Abbott Laboratories, priority 1996, dated 2007):
≈ marks a conversion by molar mass, not a printed value.

Test system: up to 32 different microorganisms
Test: in vitro antibacterial activity (MIC), agar dilution on Brain Heart Infusion (BHI) agar with Steers replicator
Type: cell-based
Conditions: unit assumed
In short: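 Agar dilution MIC: twelve successive compound dilutions in BHI agar, spot-inoculated with 1:100 (1:10 for slow growers) organism dilutions by Steers replicator, incubated 35-37° C for 20-24 h. MIC is lowest concentration showing no growth, slight haze or sparse colonies versus drug-free control; erythromycin A as class reference.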

`CC[C@H]1OC(=O)[C@H](C)C(=O)[C@H](C)[C@@H](O[C@@H]2O[C@H](C)C[C@H](N(C)C)[C@H]2O)[C@@](C)(OCC=Cc2ccc3ncc(Br)cc3c2)C[C@@H](C)C(=O)[C@H](C)[C@H]2NC(=O)O[C@@]21C` [Example 219, R is —CH2CH═CH-(3-bromo-6-quinolyl)] gave an MIC (organism code AA) of 0.2 µg/mL (≈ 0.237 µM), an MIC (organism code BB) of 0.2 µg/mL (≈ 0.237 µM) and an MIC (organism code CC) of 100 µg/mL (≈ 118 µM). The MIC (organism code DD) was 0.2 µg/mL (≈ 0.237 µM), the MIC (organism code EE) was 0.2 µg/mL (≈ 0.237 µM) and the MIC (organism code FF) was 0.2 µg/mL (≈ 0.237 µM). For the same compound, the MIC (organism code GG) was 100 µg/mL (≈ 118 µM), the MIC (organism code HH) was 0.2 µg/mL (≈ 0.237 µM) and the MIC (organism code II) was 0.05 µg/mL (≈ 0.0592 µM). It also gave an MIC (organism code JJ) of no more than 0.005 µg/mL, an MIC (organism code KK) of 0.02 µg/mL (≈ 0.0237 µM) and an MIC (organism code LL) of 0.02 µg/mL (≈ 0.0237 µM). For the same compound, the MIC (organism code MM) was 3.1 µg/mL (≈ 3.67 µM), the MIC (organism code NN) was 0.2 µg/mL (≈ 0.237 µM) and the MIC (organism code OO) was 0.05 µg/mL (≈ 0.0592 µM). For the same compound, the MIC (organism code PP) was 0.2 µg/mL (≈ 0.237 µM), the MIC (organism code QQ) was 100 µg/mL (≈ 118 µM) and the MIC (organism code RR) was 0.78 µg/mL (≈ 0.923 µM). It also gave an MIC (organism code SS) greater than 100 µg/mL, an MIC (organism code TT) greater than 100 µg/mL and an MIC (organism code UU) of 0.39 µg/mL (≈ 0.462 µM). For the same compound, the MIC (organism code VV) was 0.05 µg/mL (≈ 0.0592 µM), the MIC (organism code WW) was 2 µg/mL (≈ 2.37 µM) and the MIC (organism code XX) was 0.03 µg/mL (≈ 0.0355 µM). For the same compound, the MIC (organism code YY) was 0.03 µg/mL (≈ 0.0355 µM), the MIC (organism code ZZ) was 2 µg/mL (≈ 2.37 µM) and the MIC (organism code ZZA) was 0.25 µg/mL (≈ 0.296 µM).

`CC[C@H]1OC(=O)[C@H](C)C(=O)[C@H](C)[C@@H](O[C@@H]2O[C@H](C)C[C@H](N(C)C)[C@H]2O)[C@@](C)(OCC=O)C[C@@H](C)C(=O)[C@H](C)[C@H]2NC(=O)O[C@@]21C` [Example 220, Compound of Formula (IX): L is CO, T is NH, R is —CH2C(O)H] gave an MIC (organism code AA) of 0.2 µg/mL, an MIC (organism code BB) of 0.39 µg/mL and an MIC (organism code CC) greater than 100 µg/mL. For the same compound, the MIC (organism code DD) was 0.2 µg/mL, the MIC (organism code EE) was 0.2 µg/mL and the MIC (organism code FF) was 0.2 µg/mL. For the same compound, the MIC (organism code GG) was greater than 100 µg/mL, the MIC (organism code HH) was 0.2 µg/mL and the MIC (organism code II) was 0.05 µg/mL. It also gave an MIC (organism code JJ) of no more than 0.005 µg/mL, an MIC (organism code KK) of 0.02 µg/mL and an MIC (organism code LL) of 0.01 µg/mL. It also gave an MIC (organism code MM) greater than 100 µg/mL, an MIC (organism code NN) of 0.39 µg/mL and an MIC (organism code OO) of 0.02 µg/mL. For the same compound, the MIC (organism code PP) was 0.2 µg/mL, the MIC (organism code QQ) was 12.5 µg/mL and the MIC (organism code RR) was 0.1 µg/mL. The MIC (organism code SS) was 12.5 µg/mL, the MIC (organism code TT) was greater than 100 µg/mL and the MIC (organism code UU) was 3.1 µg/mL. The MIC (organism code VV) was 0.2 µg/mL, the MIC (organism code WW) was 2 µg/mL and the MIC (organism code XX) was 0.03 µg/mL. The MIC (organism code YY) was 0.06 µg/mL, the MIC (organism code ZZ) was greater than 128 µg/mL and the MIC (organism code ZZA) was 2 µg/mL.

For `CC[C@H]1OC(=O)[C@H](C)C(=O)[C@H](C)[C@@H](O[C@@H]2O[C@H](C)C[C@H](N(C)C)[C@H]2O)[C@@](C)(OCCNCCc2ccccc2)C[C@@H](C)C(=O)[C@H](C)[C@H]2NC(=O)O[C@@]21C` [Example 222, Compound of Formula (IX): L is CO, T is NH, R is —CH2CH2NHCH2CH2Phenyl], the MIC (organism code AA) was 0.2 µg/mL, the MIC (organism code BB) was 0.1 µg/mL and the MIC (organism code CC) was greater than 100 µg/mL. For the same compound, the MIC (organism code DD) was 0.39 µg/mL, the MIC (organism code EE) was 0.2 µg/mL and the MIC (organism code FF) was 0.2 µg/mL. It also gave an MIC (organism code GG) greater than 100 µg/mL, an MIC (organism code HH) of 0.2 µg/mL and an MIC (organism code II) of 0.02 µg/mL. The MIC (organism code JJ) was no more than 0.005 µg/mL, the MIC (organism code KK) was 0.02 µg/mL and the MIC (organism code LL) was no more than 0.005 µg/mL. For the same compound, the MIC (organism code MM) was greater than 100 µg/mL, the MIC (organism code NN) was 0.39 µg/mL and the MIC (organism code OO) was 0.01 µg/mL. The MIC (organism code PP) was 0.2 µg/mL, the MIC (organism code QQ) was 25 µg/mL and the MIC (organism code RR) was 0.1 µg/mL. The MIC (organism code SS) was 25 µg/mL, the MIC (organism code TT) was greater than 100 µg/mL and the MIC (organism code UU) was 0.78 µg/mL. The MIC (organism code VV) was 0.2 µg/mL, the MIC (organism code WW) was 4 µg/mL and the MIC (organism code XX) was 0.03 µg/mL. The MIC (organism code YY) was 0.06 µg/mL, the MIC (organism code ZZ) was greater than 128 µg/mL and the MIC (organism code ZZA) was 2 µg/mL.

With `CC[C@H]1OC(=O)[C@H](C)C(=O)[C@H](C)[C@@H](O[C@@H]2O[C@H](C)C[C@H](N(C)C)[C@H]2O)[C@@](C)(OCCNCCCc2ccccc2)C[C@@H](C)C(=O)[C@H](C)[C@H]2NC(=O)O[C@@]21C` [Example 223, Compound of Formula (IX): L is CO, T is NH, R is —CH2CH2NHCH2CH2CH2Phenyl] the MIC (organism code AA) was 0.2 µg/mL, the MIC (organism code BB) was 0.1 µg/mL and the MIC (organism code CC) was greater than 100 µg/mL. The MIC (organism code DD) was 0.2 µg/mL, the MIC (organism code EE) was 0.2 µg/mL and the MIC (organism code FF) was 0.2 µg/mL. For the same compound, the MIC (organism code GG) was greater than 100 µg/mL, the MIC (organism code HH) was 0.39 µg/mL and the MIC (organism code II) was 0.05 µg/mL. The MIC (organism code JJ) was no more than 0.005 µg/mL, the MIC (organism code KK) was no more than 0.005 µg/mL and the MIC (organism code LL) was no more than 0.005 µg/mL. It also gave an MIC (organism code MM) greater than 100 µg/mL, an MIC (organism code NN) of 0.1 µg/mL and an MIC (organism code OO) of 0.05 µg/mL. For the same compound, the MIC (organism code PP) was 0.2 µg/mL, the MIC (organism code QQ) was 50 µg/mL and the MIC (organism code RR) was 0.2 µg/mL. The MIC (organism code SS) was 100 µg/mL, the MIC (organism code TT) was greater than 100 µg/mL and the MIC (organism code UU) was 3.1 µg/mL. It also gave an MIC (organism code VV) of 0.2 µg/mL, an MIC (organism code WW) of 4 µg/mL and an MIC (organism code XX) of 0.03 µg/mL. For the same compound, the MIC (organism code YY) was 0.03 µg/mL, the MIC (organism code ZZ) was greater than 128 µg/mL and the MIC (organism code ZZA) was 0.5 µg/mL.

Compound `CC[C@H]1OC(=O)[C@H](C)C(=O)[C@H](C)[C@@H](O[C@@H]2O[C@H](C)C[C@H](N(C)C)[C@H]2O)[C@@](C)(OCCNCCCCc2ccccc2)C[C@@H](C)C(=O)[C@H](C)[C@H]2NC(=O)O[C@@]21C` [Example 224] has an MIC (organism code AA) of 0.39 µg/mL (≈ 0.504 µM), an MIC (organism code BB) of 0.2 µg/mL (≈ 0.258 µM) and an MIC (organism code CC) greater than 100 µg/mL. The MIC (organism code DD) was 0.2 µg/mL (≈ 0.258 µM), the MIC (organism code EE) was 0.2 µg/mL (≈ 0.258 µM) and the MIC (organism code FF) was 0.2 µg/mL (≈ 0.258 µM). It also gave an MIC (organism code GG) greater than 100 µg/mL, an MIC (organism code HH) of 0.39 µg/mL (≈ 0.504 µM) and an MIC (organism code II) of 0.01 µg/mL (≈ 0.0129 µM). For the same compound, the MIC (organism code JJ) was 0.01 µg/mL (≈ 0.0129 µM), the MIC (organism code KK) was no more than 0.005 µg/mL and the MIC (organism code LL) was 0.01 µg/mL (≈ 0.0129 µM). For the same compound, the MIC (organism code MM) was greater than 100 µg/mL, the MIC (organism code NN) was 0.2 µg/mL (≈ 0.258 µM) and the MIC (organism code OO) was 0.02 µg/mL (≈ 0.0258 µM). It also gave an MIC (organism code PP) of 0.2 µg/mL (≈ 0.258 µM), an MIC (organism code QQ) of 25 µg/mL (≈ 32.3 µM) and an MIC (organism code RR) of 0.2 µg/mL (≈ 0.258 µM). For the same compound, the MIC (organism code SS) was 25 µg/mL (≈ 32.3 µM), the MIC (organism code TT) was greater than 100 µg/mL and the MIC (organism code UU) was 3.1 µg/mL (≈ 4.01 µM). For the same compound, the MIC (organism code VV) was 0.1 µg/mL (≈ 0.129 µM), the MIC (organism code WW) was 4 µg/mL (≈ 5.17 µM) and the MIC (organism code XX) was 0.03 µg/mL (≈ 0.0388 µM). For the same compound, the MIC (organism code YY) was 0.03 µg/mL (≈ 0.0388 µM), the MIC (organism code ZZ) was greater than 128 µg/mL and the MIC (organism code ZZA) was 2 µg/mL (≈ 2.58 µM).
